Assay results published in patent US20220017491A1, “COMPOUND INHIBITING YAP-TEAD BINDING, AND PHARMACEUTICAL COMPOSITION FOR PREVENTING OR TREATING CANCER, COMPRISING COMPOUND AS ACTIVE INGREDIENT” (KOREA RESEARCH INSTITUTE OF CHEMICAL TECHNOLOGY, priority 2018, published 2022).

Tested on: YAP-TEAD
Test: Luciferase assay of YAP-TEAD binding inhibition (TEAD luciferase reporter 8XGTIIC in HEK293T cells)
Assay type: cell-based
Settings: 10 μM, 24 hours, luciferase normalized with β-galactosidase
Experimental: A Luciferase assay which allows an inhibition degree of YAP-TEAD, previously reported in Cancers 2018, 10(5), 140, was used to measure an in vitro binding inhibition rate of YAP-TEAD.
HEK293T cells were purchased from American Type Culture Collection and incubated in DMEM media containing 10% FBS, L-glutamine, and penicillin/streptomycin. The HEK293T cells were seeded in a 24 well plate at a density of 1×10^5, and coated with polyethyleneamine (10 μg/mL). These cells were transfected with 8XGTIIC-luciferase (Addgene reference 34615) which is TEAD luciferase reporter plasmid and control β-galactosidase plasmid CMV-β-Gal using a lipofectamine 2000 reagent (Life Technologies, Inc.) according to the manufacturer's manual. Thereafter, the compound of the present invention was treated at a concentration of 10 μM for 24 hours, the cells were lysed using a Reporter lysis buffer (Promega, France), luciferase activity was read with a Mithras LB940 plate reader, and then normalization was performed with β-galactosidase.

| Structure (SMILES) | Inhibition(%) |
| --- | --- |
| O=C(Nc1ccc2c3c(cccc13)C(=O)N2Cc1ccccc1)C1CCCN1S(=O)(=O)c1cccs1 (centres unmarked) [Compound 3] | 63% |
| O=C(Nc1ccc2c3c(cccc13)C(=O)N2CCc1c[nH]c2ccccc12)C1CCCCN1S(=O)(=O)c1cccs1 (centres unmarked) [Compound 13] | 50% |
| COc1ccc(CCN2C(=O)c3cccc4c(NC(=O)C5CCC(NS(=O)(=O)c6cccs6)CC5)ccc2c34)cc1 (centres unmarked) [Compound 22] | 78% |
| COc1ccc(CCN2C(=O)c3cccc4c(NC(=O)C5CCCN(S(=O)(=O)c6cccs6)C5)ccc2c34)cc1 (centres unmarked) [Compound 24] | 61% |
| COc1ccc(CCN2C(=O)c3cccc4c(NC(=O)[C@H]5CC[C@H](NS(=O)(=O)c6cccs6)CC5)ccc2c34)cc1 [Compound 25] | 61% |
| O=C(Nc1ccc2c3c(cccc13)C(=O)N2CCc1ccc(Cl)cc1Cl)C1CCCCN1S(=O)(=O)c1cccs1 (centres unmarked) [Compound 26] | 100% |
| COCCCN1C(=O)c2cccc3c(NC(=O)C4CCCN(S(=O)(=O)c5cccs5)C4)ccc1c23 (centres unmarked) [Compound 28] | 81% |
| COCCCN1C(=O)c2cccc3c(NC(=O)C4CCCN(S(=O)(=O)c5c(C)noc5C)C4)ccc1c23 (centres unmarked) [Compound 35] | 56% |
| COCCCN1C(=O)c2cccc3c(NC(=O)C4CCCN(S(=O)(=O)c5c(C)n[nH]c5C)C4)ccc1c23 (centres unmarked) [Compound 36] | 54% |
| COCCCN1C(=O)c2cccc3c(NC(=O)C4CCCN(S(=O)(=O)c5sc6ccc(Cl)cc6c5C)C4)ccc1c23 (centres unmarked) [Compound 48] | 58% |
| COCCCN1C(=O)c2cccc3c(NC(=O)C4CCCN(S(=O)(=O)c5ccc6c(c5)OCCO6)C4)ccc1c23 (centres unmarked) [Compound 49] | 51% |
| COCCCN1C(=O)c2cccc3c(NC(=O)C4CCCN(S(=O)(=O)c5c(C)c(C)c6c(c5C)CC(C)(C)O6)C4)ccc1c23 (centres unmarked) [Compound 50] | 63% |
| COCCCN1C(=O)c2cccc3c(NC(=O)C4CCCN(S(=O)(=O)c5ccc6c7c(cccc57)C(=O)N6)C4)ccc1c23 (centres unmarked) [Compound 55] | 50% |
| COCCCN1C(=O)c2cccc3c(NC(=O)C4CCCN(S(=O)(=O)c5cc(Cl)sc5Cl)C4)ccc1c23 (centres unmarked) [Compound 71] | 91% |
| COCCCN1C(=O)c2cccc3c(NC(=O)C4CCCN(S(=O)(=O)c5csc6ccccc56)C4)ccc1c23 (centres unmarked) [Compound 76] | 87% |
| CS(=O)(=O)N1CCC(CCN2C(=O)c3cccc4c(NC(=O)C5CCCCN5S(=O)(=O)c5cccs5)ccc2c34)CC1 (centres unmarked) [Compound 106] | 99.2% |
| COCCCN1C(=O)c2cccc3c(NC(=O)C4CCCN(S(=O)(=O)c5ccc(-c6ccccn6)s5)C4)ccc1c23 (centres unmarked) [Compound 119] | 68% |
| COCCCN1C(=O)c2cccc3c(NC(=O)C4CCCN(S(=O)(=O)c5ccc(OCCN(C)C)c(C)c5)C4)ccc1c23 (centres unmarked) [Compound 123] | 54% |
| CS(=O)(=O)N1CCC(CCN2C(=O)c3cccc4c(NC(=O)C5CCCN(S(=O)(=O)c6cccs6)C5)ccc2c34)CC1 (centres unmarked) [Compound 131] | 78% |
| CS(=O)(=O)N1CCC(CCN2C(=O)c3cccc4c(NC(=O)C5CCCCN5S(=O)(=O)c5ccc6c(c5)CCO6)ccc2c34)CC1 (centres unmarked) [Compound 133] | 59% |
| CS(=O)(=O)N1CCC(CCN2C(=O)c3cccc4c(NC(=O)C5CCCCN5S(=O)(=O)c5ccc6c(c5)OCCO6)ccc2c34)CC1 (centres unmarked) [Compound 134] | 62% |
| CS(=O)(=O)N1CCC(CCN2C(=O)c3cccc4c(NC(=O)C5CCCN(S(=O)(=O)c6ccco6)C5)ccc2c34)CC1 (centres unmarked) [Compound 136] | 80% |
| COCCCN1C(=O)c2cccc3c(NC(=O)C4CCCN(S(=O)(=O)c5ccccc5)C4)ccc1c23 (centres unmarked) [Compound 137] | 87% |
